Results published in patent publication US10047086B2, “Imidazopyridines and imidazopyrazines as LSD1 inhibitors” (Incyte Corporation, priority 2014, dated 2018).

These compounds were tested against LSD-1 enzyme (Homo sapiens (Human), UniProt O60341) (assay: LANCE LSD1/KDM1A demethylase assay (LSD1 histone demethylase biochemical assay)). Conditions: 1 nM LSD-1 enzyme, 1 hour preincubation at 25° C., 0.4 μM Biotin-labeled Histone H3 peptide substrate.
Experimental: LSD1 Histone Demethylase Biochemical Assay
LANCE LSD1/KDM1A demethylase assay-10 μL of 1 nM LSD-1 enzyme (ENZO BML-SE544-0050) in the assay buffer (50 mM Tris, pH 7.5, 0.01% Tween-20, 25 mM NaCl, 5 mM DTT) were preincubated for 1 hour at 25° C. with 0.8 μL compound/DMSO dotted in black 384 well polystyrene plates. […] Reactions were stopped by addition of 10 μL 1× LANCE Detection Buffer (PerkinElmer CR97-100) supplemented with 1.5 nM Eu-anti-unmodified H3K4 Antibody (PerkinElmer TRF0404), and 225 nM LANCE Ultra Streptavidin (PerkinElmer TRF102) along with 0.9 mM Tranylcypromine-HCl (Millipore 616431). After stopping the reactions plates were incubated for 30 minutes and read on a PHERAstar FS plate reader (BMG Labtech).
With `CN1CCC[C@@H](COc2cc(-c3ccc(C#N)cc3)c(-c3ccc(CN(C)C(=O)N(C)C)c(F)c3)n3cncc23)C1` [Example 82, N-[4-(6-(4-cyanophenyl)-8-{[(3R)-1-methylpiperidin-3-yl]methoxy}imidazo[1,5-a]pyridin-5-yl)-2-fluorobenzyl]-N,N′,N′-trimethylurea] the IC50 was ≤ 50 nM. For `COCCN1CCC[C@@H](COc2cc(-c3ccc(C#N)cc3)c(-c3cnc(C)c(C)c3)n3cncc23)C1` [Example 130, 4-(5-(5,6-dimethylpyridin-3-yl)-8-{[(3R)-1-(2-methoxyethyl)piperidin-3-yl]methoxy}imidazo[1,5-a]pyridin-6-yl)benzonitrile], the IC50 was ≤ 50 nM. `CN(C)C1CCN(c2nc(-c3ccc(C#N)cc3)c(-c3ccc4c(c3)CC(O)C4)n3cncc23)CC1` (racemic) [Example 136, 4-[8-[4-(dimethylamino)piperidin-1-yl]-5-(2-hydroxy-2,3-dihydro-1H-inden-5-yl)imidazo[1,5-a]pyrazin-6-yl]benzonitrile] was tested, and the IC50 was ≤ 50 nM. In the case of `CCN1CCC[C@@H](COc2cc(-c3ccc(C#N)cc3)c(-c3cnc(C)c(C)c3)n3cncc23)C1` [Example 131, 4-(5-(5,6-dimethylpyridin-3-yl)-8-{[(3R)-1-ethylpiperidin-3-yl]methoxy}imidazo[1,5-a]pyridin-6-yl)benzonitrile], the IC50 is reported as ≤ 50 nM. `CN(C)C1CCN(c2nc(-c3ccc(C#N)cc3)c(-c3ccc(N4CCCC4=O)nc3)n3cncc23)CC1` [Example 54, 4-{8-[4-(dimethylamino)piperidin-1-yl]-5-[6-(2-oxopyrrolidin-1-yl)pyridin-3-yl]imidazo[1,5-a]pyrazin-6-yl}benzonitrile] was tested, and the IC50 was ≤ 50 nM. For `CN1CCC[C@@H](COc2nc(-c3ccc(C#N)cc3)c(-c3cnc4c(c3)OCCN4C)n3cncc23)C1` [Example 29, 4-(5-(4-methyl-3,4-dihydro-2H-pyrido[3,2-b][1,4]oxazin-7-yl)-8-{[(3R)-1-methylpiperidin-3-yl]methoxy}imidazo[1,5-a]pyrazin-6-yl)benzonitrile], the IC50 was ≤ 50 nM. For `CN(C)C1CCN(c2nc(-c3ccc(C#N)cc3)c(-c3ccc4c(c3)ncn4C)n3cncc23)CC1` [Example 83, 4-[8-[4-(dimethylamino)piperidin-1-yl]-5-(1-methyl-1H-benzimidazol-5-yl)imidazo[1,5-a]pyrazin-6-yl]benzonitrile], the IC50 was ≤ 50 nM. With `CN1CCC[C@@H](COc2cc(-c3ccc(C#N)cc3)c(-c3cnc4c(c3)ncn4C)n3cncc23)C1` [Example 58, (R)-4-(5-(3-methyl-3H-imidazo[4,5-b]pyridin-6-yl)-8-((1-methylpiperidin-3-yl)methoxy)imidazo[1,5-a]pyridin-6-yl)benzonitrile] the IC50 was ≤ 50 nM. `CN1CCC[C@@H](COc2cc(-c3ccc(C#N)cc3)c(-c3ccc4c(c3)oc(=O)n4C)n3cncc23)C1` [Example 63, (R)-4-(5-(3-methyl-2-oxo-2,3-dihydrobenzo[d]oxazol-6-yl)-8-((1-methylpiperidin-3-yl)methoxy)imidazo[1,5-a]pyridin-6-yl)benzonitrile] was tested, and the IC50 was ≤ 50 nM. `COCCN1CCC[C@@H](COc2cc(-c3ccc(C#N)cc3)c(-c3cnc4c(c3)OCCO4)n3cncc23)C1` [Example 115, (R)-4-(5-(2,3-dihydro-[1,4]dioxino[2,3-b]pyridin-7-yl)-8-((1-(2-methoxyethyl)piperidin-3-yl)methoxy)imidazo[1,5-a]pyridin-6-yl)benzonitrile] was tested, and the IC50 was ≤ 50 nM. In the case of `CN(C)C1CCN(c2nc(-c3ccc(C#N)cc3)c(-c3ccc(OC(F)F)nc3)n3cncc23)CC1` [Example 98, 4-{5-[6-(difluoromethoxy)pyridin-3-yl]-8-[4-(dimethylamino)piperidin-1-yl]imidazo[1,5-a]pyrazin-6-yl}benzonitrile], the IC50 is reported as ≤ 50 nM. For `CN1CCC[C@@H](COc2cc(-c3ccc(C#N)cc3)c(-c3ccc(N4CCCC4=O)nc3)n3cncc23)C1` [Example 71, (R)-4-(8-((1-methylpiperidin-3-yl)methoxy)-5-(6-(2-oxopyrrolidin-1-yl)pyridin-3-yl)imidazo[1,5-a]pyridin-6-yl)benzonitrile], the IC50 was ≤ 50 nM. In the case of `CN1CCC[C@@H](COc2cc(-c3ccc(C#N)cc3)c(-c3cnc4c(c3)OCCO4)n3cncc23)C1` [Example 62, (R)-4-(5-(2,3-dihydro-[1,4]dioxino[2,3-b]pyridin-7-yl)-8-((1-methylpiperidin-3-yl)methoxy)imidazo[1,5-a]pyridin-6-yl)benzonitrile], the IC50 is reported as ≤ 50 nM. For `CCN1CCC[C@@H](COc2cc(-c3ccc(C#N)cc3)c(-c3cnc4c(c3)OCCO4)n3cncc23)C1` [Example 67, (R)-4-(5-(2,3-dihydro-[1,4]dioxino[2,3-b]pyridin-7-yl)-8-((1-ethylpiperidin-3-yl)methoxy)imidazo[1,5-a]pyridin-6-yl)benzonitrile], the IC50 was ≤ 50 nM. `CN1CCC[C@@H](COc2nc(-c3ccc(C#N)c(F)c3)c(-c3ccc4c(c3)CCC(=O)N4C)n3cncc23)C1` [Example 102, 2-fluoro-4-(5-(1-methyl-2-oxo-1,2,3,4-tetrahydroquinolin-6-yl)-8-{[(3R)-1-methylpiperidin-3-yl]methoxy}imidazo[1,5-a]pyrazin-6-yl)benzonitrile] was tested, and the IC50 was ≤ 50 nM. With `CN1CCC[C@@H](COc2nc(-c3ccc(C#N)cc3)c(-c3cc4oc(=O)n(C)c4cc3F)n3cncc23)C1` [Example 30, 4-(5-(5-fluoro-3-methyl-2-oxo-2,3-dihydro-1,3-benzoxazol-6-yl)-8-{[(3R)-1-methylpiperidin-3-yl]methoxy}imidazo[1,5-a]pyrazin-6-yl)benzonitrile] the IC50 was ≤ 50 nM. For `COCCN1CCC[C@@H](COc2cc(-c3ccc(C#N)cc3)c(-c3cc(C)c(CO)c(F)c3)n3cncc23)C1` [Example 129, 4-(5-[3-fluoro-4-(hydroxymethyl)-5-methylphenyl]-8-{[(3R)-1-(2-methoxyethyl)piperidin-3-yl]methoxy}imidazo[1,5-a]pyridin-6-yl)benzonitrile], the IC50 was ≤ 50 nM. With `COc1ncc(-c2c(-c3ccc(C#N)cc3)nc(N3CCC(N(C)C)CC3)c3cncn23)cc1C` [Example 93, 4-[8-[4-(dimethylamino)piperidin-1-yl]-5-(6-methoxy-5-methylpyridin-3-yl)imidazo[1,5-a]pyrazin-6-yl]benzonitrile] the IC50 was ≤ 50 nM. `COc1ncc(-c2c(-c3ccc(C#N)cc3)nc(OC[C@@H]3CCCN(C)C3)c3cncn23)cc1F` [Example 43, 4-(5-(5-fluoro-6-methoxypyridin-3-yl)-8-{[(3R)-1-methylpiperidin-3-yl]methoxy}imidazo[1,5-a]pyrazin-6-yl)benzonitrile] was tested, and the IC50 was ≤ 50 nM. In the case of `COc1ncc(-c2c(-c3ccc(C#N)cc3)nc(N3CCC(N(C)C)CC3)c3cncn23)cc1F` [Example 90, 4-[8-[4-(dimethylamino)piperidin-1-yl]-5-(5-fluoro-6-methoxypyridin-3-yl)imidazo[1,5-a]pyrazin-6-yl]benzonitrile], the IC50 is reported as ≤ 50 nM. For `CN1CCC[C@@H](COc2nc(-c3ccc(C#N)cc3)c(-c3ccc4c(c3)CC(O)C4)n3cncc23)C1` (stereo partly drawn) [Example 101, 4-(5-(2-hydroxy-2,3-dihydro-1H-inden-5-yl)-8-{[(3R)-1-methylpiperidin-3-yl]methoxy}imidazo[1,5-a]pyrazin-6-yl)benzonitrile], the IC50 was ≤ 50 nM. With `CN1CCC[C@@H](COc2nc(-c3ccc(C#N)cc3)c(-c3ccc4c(c3)ncn4C)n3cncc23)C1` [Example 28, 4-(5-(1-methyl-1H-benzimidazol-5-yl)-8-{[(3R)-1-methylpiperidin-3-yl]methoxy}imidazo[1,5-a]pyrazin-6-yl)benzonitrile] the IC50 was ≤ 50 nM. `Cc1cc(-c2c(-c3ccc(C#N)cc3)cc(OC[C@@H]3CCCN(C)C3)c3cncn23)cc(F)c1C(C)O` (stereo partly drawn) [Example 126, 4-(5-[3-fluoro-4-(1-hydroxyethyl)-5-methylphenyl]-8-{[(3R)-1-methylpiperidin-3-yl]methoxy}imidazo[1,5-a]pyridin-6-yl)benzonitrile] was tested, and the IC50 was ≤ 50 nM. With `Cc1ccc(-c2c(-c3ccc(C#N)cc3)nc(OC[C@@H]3CCCN(C)C3)c3cncn23)cc1CO` [Example 42, 4-(5-[3-(hydroxymethyl)-4-methylphenyl]-8-{[(3R)-1-methylpiperidin-3-yl]methoxy}imidazo[1,5-a]pyrazin-6-yl)benzonitrile] the IC50 was ≤ 50 nM. For `Cc1ccc(-c2c(-c3ccc(C#N)cc3)cc(OC[C@@H]3CCNC3)c3cncn23)c(F)c1` [Example 8, 4-{5-(2-fluoro-4-methylphenyl)-8-[(3R)-pyrrolidin-3-ylmethoxy]imidazo[1,5-a]pyridin-6-yl}benzonitrile], the IC50 was ≤ 50 nM. For `CCOc1ccc(-c2c(-c3ccc(C#N)cc3)nc(N3CCC(N(C)C)CC3)c3cncn23)cn1` [Example 99, 4-[8-[4-(dimethylamino)piperidin-1-yl]-5-(6-ethoxypyridin-3-yl)imidazo[1,5-a]pyrazin-6-yl]benzonitrile], the IC50 was ≤ 50 nM. `Cc1ccc(-c2c(-c3ccc(C#N)cc3)cc(OC[C@@H]3CCCN(C)C3)c3cncn23)cn1` [Example 125, 4-[8-{[(3R)-1-methylpiperidin-3-yl]methoxy}-5-(6-methylpyridin-3-yl)imidazo[1,5-a]pyridin-6-yl]benzonitrile] was tested, and the IC50 was ≤ 50 nM. With `CN1C(=O)CCc2cc(-c3c(-c4ccc(C#N)cc4)nc(N4CCC(N(C)C)CC4)c4cncn34)ccc21` [Example 137, 4-[8-[4-(dimethylamino)piperidin-1-yl]-5-(1-methyl-2-oxo-1,2,3,4-tetrahydroquinolin-6-yl)imidazo[1,5-a]pyrazin-6-yl]benzonitrile] the IC50 was ≤ 50 nM. `CN1CCC[C@@H](COc2nc(-c3ccc(C#N)cc3)c(-c3cnc4c(ccn4C)c3)n3cncc23)C1` [Example 85, 4-[8-{[(3R)-1-methylpiperidin-3-yl]methoxy}-5-(1-methyl-1H-pyrrolo[2,3-b]pyridin-5-yl)imidazo[1,5-a]pyrazin-6-yl]benzonitrile] was tested, and the IC50 was ≤ 50 nM.
